These results are taken from ChEMBL document CHEMBL5543118, “Optimization of Potent Ligands for the E3 Ligase DCAF15 and Evaluation of Their Use in Heterobifunctional Degraders” (J Med Chem, 2024).

Structures are written as SMILES. Activity calls are given as the source filed them. The rule behind the calls is not given here.

The nature of data set [1]: Binding affinity to human His6-HALO-TEV DCAF15/DDB1/DDA1 complex assessed as displacement of fluorophore tagged indisulam analogue from complex measured after 1 hr by TR-FRET assay. For orientation: TR-FRET usually uses a lanthanide donor and a delayed reading to cut background.
Data set [2] is described as follows: Lipophilicity, logD of the compound in octanol/water at pH 7.4 by shake flask method. It is filed as physicochemical.
In data set [3] the target is T1, Bromodomain-containing protein 4/DDB1- and CUL4-associated factor 15 (Homo sapiens, UniProt O60885+Q66K64). Nature of the data set: PROTAC activity at HiBiT tag-BRD4/DCAF15 E3 ligase (unknown origin) expressed in HEK293 cells in presence of (+)-JQ1 incubated for 24 hrs by HiBit degradation assay. It is filed as cell-based. Background: The HiBiT peptide binds its large partner to form an active luciferase.
T1 sequence (Q66K64 whole entry, looked up, other chains not shown): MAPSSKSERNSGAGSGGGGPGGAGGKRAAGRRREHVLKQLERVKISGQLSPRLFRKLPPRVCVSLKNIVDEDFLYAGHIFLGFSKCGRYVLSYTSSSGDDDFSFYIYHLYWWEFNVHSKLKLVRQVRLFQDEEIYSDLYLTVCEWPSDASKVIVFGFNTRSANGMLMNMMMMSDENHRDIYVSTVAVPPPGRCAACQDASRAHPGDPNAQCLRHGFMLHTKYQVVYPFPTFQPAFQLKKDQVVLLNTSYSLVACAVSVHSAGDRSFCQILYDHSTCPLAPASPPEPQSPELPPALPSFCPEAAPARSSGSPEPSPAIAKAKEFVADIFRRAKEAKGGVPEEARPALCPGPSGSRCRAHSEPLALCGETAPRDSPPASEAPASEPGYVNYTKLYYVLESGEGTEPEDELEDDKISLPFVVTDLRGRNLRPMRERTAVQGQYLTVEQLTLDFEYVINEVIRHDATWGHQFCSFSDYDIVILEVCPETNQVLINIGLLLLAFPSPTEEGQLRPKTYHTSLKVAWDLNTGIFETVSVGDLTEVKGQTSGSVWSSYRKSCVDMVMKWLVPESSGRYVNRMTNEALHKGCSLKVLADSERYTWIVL

Data set [4] has as its system HEK293. Nature of the data set: Cytotoxicity against human HEK293 cells expressing HiBiT tag-BRD4 assessed as cell viability at 10 uM measured after 24 hrs. Type of data set: toxicity, cell-based. The note with it: hek293, 24 h.
The target of data set [5] is DDB1- and CUL4-associated factor 15/RNA-binding protein 39 (Homo sapiens) (UniProt Q14498+Q66K64). Nature of the data set: PROTAC activity at RBM39/DCAF15 E3 ligase (unknown origin) assessed as degradation at 0.1 to 10 uM by Western blotting analysis. The note with it: HEK293, dose 0.1-10 µM. Type of data set: cell-based.
DDB1- and CUL4-associated factor 15/RNA-binding protein 39 (Homo sapiens), sequence (Q14498 whole entry, looked up): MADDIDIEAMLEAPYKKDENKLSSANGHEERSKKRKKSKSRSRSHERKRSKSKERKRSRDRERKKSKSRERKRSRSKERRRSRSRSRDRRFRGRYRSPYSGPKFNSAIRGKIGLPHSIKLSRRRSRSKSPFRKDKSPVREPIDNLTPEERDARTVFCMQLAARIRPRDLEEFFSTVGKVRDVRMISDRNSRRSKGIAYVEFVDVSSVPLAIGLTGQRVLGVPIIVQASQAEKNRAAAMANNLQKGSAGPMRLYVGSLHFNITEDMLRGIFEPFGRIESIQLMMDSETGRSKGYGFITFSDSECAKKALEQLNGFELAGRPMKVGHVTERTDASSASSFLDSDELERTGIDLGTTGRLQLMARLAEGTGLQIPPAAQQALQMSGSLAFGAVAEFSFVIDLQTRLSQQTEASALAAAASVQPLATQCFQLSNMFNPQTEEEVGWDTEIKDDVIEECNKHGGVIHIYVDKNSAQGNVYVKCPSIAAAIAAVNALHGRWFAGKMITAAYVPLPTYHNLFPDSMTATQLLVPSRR
DDB1- and CUL4-associated factor 15/RNA-binding protein 39 (Homo sapiens), sequence (Q66K64 whole entry, looked up): as the sequence (Q66K64 whole entry, looked up, other chains not shown) above
Data set [6] deals with T1, Bromodomain-containing protein 4/DDB1- and CUL4-associated factor 15. Nature of the data set: PROTAC activity at BRD4/DCAF15 E3 ligase (unknown origin) assessed as maximal degradation incubated for 16 hrs by immunoblot analysis relative to control. Type of data set: protein assay.
For data set [7] the target is unchanged. Nature of the data set: PROTAC activity at BRD4/DCAF15 E3 ligase (unknown origin) incubated for 16 hrs by immunoblot analysis. Type of data set: protein assay. A general note: A western blot detects proteins with antibodies after separation by electrophoresis.
Data set [8] in a line: Aqueous solubility of the compound in DMSO measured for 20 to 24 hrs. Type of data set: physicochemical. Particulars: time 20-24 hrs.
Data set [9] has as its target T1, Bromodomain-containing protein 4/DDB1- and CUL4-associated factor 15. Nature of the data set: PROTAC activity at HiBiT tag-BRD4/DCAF15 E3 ligase (unknown origin) expressed in HEK293 cells incubated for 6 hrs by HiBit degradation assay. Type of data set: cell-based.
For data set [10] the target is unchanged. Nature of the data set: PROTAC activity at HiBiT tag-BRD4/DCAF15 E3 ligase (unknown origin) expressed in HEK293 cells in presence of MLN4924 incubated for 24 hrs by HiBit degradation assay. Type of data set: cell-based.
For data set [11] the target is unchanged. Nature of the data set: PROTAC activity at HiBiT tag-BRD4/DCAF15 E3 ligase (unknown origin) expressed in HEK293 cells assessed as maximal degradation incubated for 6 hrs by HiBit degradation assay relative to control. Type of data set: cell-based.

By IC50 is commonly meant the concentration at which inhibition is half-maximal. The logD is lipophilicity at a set pH, counting ionised and neutral species. Higher therefore signals a more lipophilic compound. Take `CNC(=O)C1CCN(C(=O)c2oc(S(=O)(=O)Nc3ccc(Cl)c4c(Cl)c[nH]c34)cc2C)CC1`: the IC50 in data set [1] worked out at 53 nM. In data set [2], this compound displayed a logD of 2.1. Besides, the result in [3] was Active. Also, the Activity entry in data set [4] is “Toxic”. Besides, the result in [5] was inactive.
With `N#Cc1cccc(S(=O)(=O)Nc2ccc(Cl)c3c(C#N)c[nH]c23)c1`, in [1], the IC50 worked out at 1550 nM. The compound also gave a logD in [2] of 2.4.
For `Cc1ccc(NS(=O)(=O)c2cccc(C#N)c2)c2[nH]cc(C#N)c12` [E-7820], in that order: 2320 nM and 2.6.
On to `Cc1sc(S(=O)(=O)Nc2ccc(Cl)c3c(Cl)c[nH]c23)cc1C(=O)N(C)C`, for which the IC50 in [1] turned out to be 615 nM. Also, in data set [2], the logD was 3.
Regarding `N#Cc1cccc(S(=O)(=O)Nc2ccc(Cl)c3c(Cl)c[nH]c23)c1`, the IC50 in data set [1] was found to be 709 nM. The compound further registered a log distribution coefficient (logD) in data set [2] of 4.
Consider `N#Cc1cccc(S(=O)(=O)Nc2ccc(F)c3c(C#N)c[nH]c23)c1`, for which the IC50 in [1] amounted to 7010 nM. Besides, the logD in [2] turned out to be 2.
The term Emax denotes the maximal effect, on the per cent scale that the assay sets. `Cc1sc2c(c1C)C(c1ccc(Cl)cc1)=N[C@@H](CC(=O)NCCOCCOCCNC(=O)c1cccc(S(=O)(=O)Nc3ccc(C)c4c(C#N)c[nH]c34)c1)c1nnc(C)n1-2`: the Emax in [6] is 98%. Further, the DC50 in data set [7] came out at 10.8 µM.
`CN(C)C(=O)c1ccc(S(=O)(=O)Nc2ccc(Cl)c3c(Cl)c[nH]c23)o1`: in data set [1], the IC50 is 675 nM. In data set [2], this compound returned a logD of 2.3.
For `CN(C)C(=O)c1nc(S(=O)(=O)Nc2ccc(Cl)c3c(Cl)c[nH]c23)cn1C`, in that order: 842 nM and 2.2.
As for `CN(C)C(=O)c1oc(S(=O)(=O)Nc2ccc(Cl)c3c(Cl)c[nH]c23)cc1Cl`, the IC50 in data set [1] came out at 395 nM. The logD in [2] was determined as 2.3.
As for `CNC(=O)[C@@H]1CCN(C(=O)c2oc(S(=O)(=O)Nc3ccc(Cl)c4c(Cl)c[nH]c34)cc2C)C1`, in [1], the IC50 came out at 279 nM. Also, the logD in [2] turned out to be 2.
`Cc1cc(S(=O)(=O)Nc2ccc(Cl)c3c(Cl)c[nH]c23)oc1C(=O)N1CCN(C)CC1`: the IC50 in [1] was 393 nM. Also, the logD in data set [2] worked out at 2.2.
For the compound `Cc1coc(S(=O)(=O)Nc2ccc(Cl)c3c(Cl)c[nH]c23)c1`, the IC50 in [1] is 1180 nM. For the same compound, in data set [2], the logD was determined as 3.7.
With `Cc1cc(S(=O)(=O)Nc2ccc(Cl)c3c(Cl)c[nH]c23)sc1C(=O)N(C)C`, the IC50 in data set [1] worked out at 224 nM. Besides, in data set [2], the logD came out at 3.1.
For the compound `COc1ccc(NS(=O)(=O)c2cccc(C#N)c2)c2[nH]cc(C#N)c12`, the IC50 in [1] was > 100000 nM. Besides, in data set [2], the logD amounted to 2.2.
The matching figures for `N#Cc1cccc(S(=O)(=O)Nc2ccc(C#N)c3c(Cl)c[nH]c23)c1`: 4390 nM and 1.7.
The matching figures for `COCCNC(=O)c1oc(S(=O)(=O)Nc2ccc(Cl)c3c(Cl)c[nH]c23)cc1C`: 505 nM and 2.8.
For `CNC(=O)c1oc(S(=O)(=O)Nc2ccc(Cl)c3c(Cl)c[nH]c23)cc1C`, in that order: 576 nM and 2.9.
On to `CNC(=O)C1CN(C(=O)c2oc(S(=O)(=O)Nc3ccc(Cl)c4c(Cl)c[nH]c34)cc2C)C1`, for which, in data set [1], the IC50 came to 979 nM. The same compound showed a logD in [2] of 1.9.
For the compound `N#Cc1cccc(S(=O)(=O)Nc2cc(Cl)cc3c(Cl)c[nH]c23)c1`, the half-inhibitory concentration (IC50) in data set [1] came to 1460 nM. In data set [2], this compound registered a logD of 3.8.
In the case of `Cc1cc(S(=O)(=O)Nc2ccc(Cl)c3c(Cl)c[nH]c23)oc1C(=O)N1CCCCC1`, the IC50 in data set [1] was found to be 46 nM. Also, the logD in data set [2] is 3.6.
The matching figures for `Cc1cc(S(=O)(=O)Nc2ccc(Cl)c3c(Cl)c[nH]c23)oc1C(=O)N(C)C`: 221 nM and 2.7.
The matching figures for `CNC(=O)[C@H]1CCN(C(=O)c2oc(S(=O)(=O)Nc3ccc(Cl)c4c(Cl)c[nH]c34)cc2C)C1`: 692 nM and 2.
With `Cc1sc(S(=O)(=O)Nc2ccc(Cl)c3c(Cl)c[nH]c23)nc1C(=O)N(C)C`, the IC50 in data set [1] came out at 506 nM. Also, in data set [2], the logD stood at 1.5.
For orientation: solubility means the concentration that dissolves in the medium under given conditions. Low readings indicate little dissolved substance, high ones much dissolved substance. As for `Cc1cc(S(=O)(=O)Nc2ccc(Cl)c3c(Cl)c[nH]c23)oc1C(=O)N1CCC(C(=O)N2CCN(CC3CCN(C(=O)C[C@@H]4N=C(c5ccc(Cl)cc5)c5c(sc(C)c5C)-n5c(C)nnc54)CC3)CC2)CC1`, the IC50 in data set [1] worked out at 74 nM. For the same compound, the logD in data set [2] is > 4. Further, the solubility in data set [8] was < 0.16 µM. This compound also gave a DC50 in data set [9] of 453 nM. For the same compound, the outcome in [10] was inactive. Further, the Emax in [11] is 69%.
